# US10300023B1, “Stabilized assembled nanostructures for delivery of encapsulated agents” (The Brigham and Women's Hospital, Inc., priority 2015, dated 2019)
# Tests used:
# [1] = tested on: PC3 (PC-3) human prostate cancer cells; test: In vitro cytotoxicity (% metabolic activity) in PC3 cells; type: cell-based; conditions: n = 3
# Protocol: (§1) Nanofiber cytotoxicity was studied in vitro in prostate cancer cells—PC3 and LNCaP.
# (§2) FIG. 8A is a line graph showing the % metabolic activity of PC3 (PC-3) human prostate cancer cells incubated with a range of concentrations (μM) of a vitamin C solution for 48 hours (“Vit C 48 h”, black square) or of stabilized vitamin C-derived particles for 24 hours or 48 hours (“Vit C particles 24 h” (grey square) and “Vit C particles 48 h” (triangle), respectively). FIG. 8B is a line graph showing the % metabolic activity of LNCaP androgen-sensitive human prostate adenocarcinoma cells incubated with Vit C for 48 hours (black squares), Vit C particles for 24 hours (grey squares), and Vit C particles for 48 hours (triangles).
# (§3) FIGS. 9A and 9B are line graphs showing the % metabolic activity of PC3 cells (FIG. 9A) and the % metabolic activity of LNCaP cells (FIG. 9B) when incubated with a range of concentrations (μM) of stabilized vitamin C-derived particles (“Vit C particles”, grey squares), of free docetaxel (“free DTX”, diamonds), or of stabilized vitamin C-derived particles encapsulating docetaxel (“DTX loaded Vit C particles”, triangles).
# [2] = tested on: LNCaP androgen-sensitive human prostate adenocarcinoma cells; test: In vitro cytotoxicity (% metabolic activity) in LNCaP cells; type: cell-based; conditions: n = 3
# Protocol: as §1, §2, §3
structure (smiles),measurement,setting,value
"CC(=O)O[C@@]12CO[C@@H]1C[C@H](O)[C@@]1(C)C(=O)[C@H](O)C3=C(C)[C@@H](OC(=O)[C@H](O)[C@@H](NC(=O)OC(C)(C)C)c4ccccc4)C[C@@](O)([C@@H](OC(=O)c4ccccc4)[C@H]21)C3(C)C [Free DTX, docetaxel]",IC50,[1],0.62 µM
same,IC50,[2],3.6 µM
